Assay results: US7262151B2, “Methods and compositions for production of lipo-chito oligosaccharides by rhizobacteria” (McGill University, priority 2001, dated 2007)
Read-outs that look alike come from different tables or passages of the source.

How the values were obtained:
[1] = system: nod genes in Bradyrhizobium japonicum strain USDA76; assay: nod gene induction, β-galactosidase assay, strain USDA 76 (GG2); assay type: cell-based; details: control 411.8 ± 26.8
Protocol: (§1) Bacteria were grown in yeast extract mannitol (YEM) medium (mannitol 10.0 g, K2HPO4 0.5 g, MgSO4.7H2O 0.2 g, NaCl 0.1 g, and yeast extract 0.4 g dissolved in 1000 mL of dd H2O). In order to ensure the maintenance of the strains, tetracycline was added to the bacterial cultures at a concentration of 20 mg 1^−1. One hundred mL cultures of each strain, in 250 mL flasks, were shaken at 150 rev min^−1 at 30° C. for 3-5 days and then subcultured into 400 mL of fresh medium in 1000 mL flasks. The cultures were incubated until the OD620 reached 0.2-0.3. The cultures were then divided into 5 mL tubes (sterilized).
(§2) Stock solutions of various inducers: genistein, salicylic acid and acetylsalicylic acid made in methanol and linolenic, linoleic, and jasmonic acid and methyl jasmonate were made in ethanol, and an appropriate amount of these inducers was added into the tubes before addition of bacterial culture. In the tubes, the final concentration of all the inducers was maintained as 5, 10, 25, 50 and 100 μM. Tubes were collected after 18 h of incubation and stored at −20° C. until the β-galactosidase activity was measured. Genistein (4′,5,7, trihydroxyisoflavone, purity 98%,), linolenic acid (9,12,15-Octadecatrienoic acid, purity 99%), linoleic acid (cis-9, cis-12-Octadecadienoic acid, purity 99%), jasmonic acid (±Jasmonic acid, C12H18O3) and salicylic acid (2-hydroxybenzoic acid, purity 99.0%) were obtained from Sigma, while acetylsalicylic acid (C9H8O4, 99% purity) was obtained from Acros and methyl jasmonate (95% purity) was obtained from Aldrich Chemical Company, Inc.
(§3) β-galactosidase is an enzyme which hydrolyzes β-D-galactosides. The activity of this enzyme can easily be measured with colorless substrates, which upon hydrolysis produce colored products. O-nitrophenyl-β-galactoside (ONPG) is a colorless compound and is converted to galactose and O-nitrophenol in the presence of β-galactosidase. The O-nitrophenol is yellow and can be measured by its absorption at 420 nm. In the present study, nod gene expression was indirectly measured by β-galactosidase activity following the method of Miller (1972) as modified by Stachel et al, (1985). Briefly, 0.5 mL culture was mixed with 2×Z buffer (Na2HPO4.7H2O, 16.1 g, NaH2PO4.H2O, 5.5 g, KCl 0.75 g, MgSO4.7H2O 0.246 g, β-mercaptoethanol 2.7 g, pH 7.0 dissolved in 500 mL water) and 40 μL toluene and vortexed for 10 seconds. The culture was then incubated in a water bath at 37° C. for 30 minutes and then 0.2 mL of O-nitrophenyl β-D-galactopyranoside (ONPG) was added at a concentration of 4 mg mL^−1. The cultures were incubated again in the water bath until the color of the culture changed. The reaction time was recorded and the reaction was stopped with 1M Na2CO3. After centrifugation at 10,000 rpm for 4 minutes, spectrophotometric reading at OD420 and OD600 were taken and the β-galactosidase activity was measured (β-galactosidase activity=OD420*1000/OD600*T*V, where T is the reaction time and V is the volume of the bacterial culture used for enzyme assay).
(§4) The effect of 0-100 μM concentrations of each of acetylsalicylic acid, salicylic acid, jasmonic acid, methyl jasmonate, and genistein, on induction of nod gene expression in Bradyrhizobium japonicum strains USDA31, USDA76, USDA121, and USDA3, was evaluated in accordance with the β-galactosidase assay of Experiment 1 in Example 1 above.

[2] = system: nod genes in Bradyrhizobium japonicum strain USDA3; assay type: cell-based; details: for nod gene induction (β-galactosidase activity): USDA3 (GG4), control 362 ± 25; for expression of nod genes (β-galactosidase assay), in words: FIG. 1; for synergistic effect on β-galactosidase activity: simultaneous addition with genistein (5 μM), FIG. 2
Protocol: Bradyrhizobium japonicum strain USDA3, harboring plasmid GG4, was used in the experiment. Plasmid GG4 contains a translational fusion between B. japonicum nod Y open-reading frame and lac Z of Escherichia coli.
as §1, §2, §3
The experiment was designed in a randomized complete block design (RCBD) with three replicates. […] Data are shown from the second experiment. Statistical analysis of the data was done with analysis of variance using the Statistical Analysis System computer package (SAS Institute, 1988). Comparisons among treatment means were made with an ANOVA protected LSD at the 0.05 level of statistical significance.

[3] = system: nod genes in Bradyrhizobium japonicum strain USDA31; assay: nod gene induction, β-galactosidase assay, strain USDA31 (GG1); assay type: cell-based
Protocol: as §1, §2, §3, §4

[4] = system: Rhizobium leguminasorum strain RBL 1284; details: Rosas et al (1998); cited from earlier work
[5] = system: nod genes in Bradyrhizobium japonicum strain USDA121; assay: nod gene induction, β-galactosidase assay, strain USDA121 (GG3); assay type: cell-based; details: control 476.8 ± 86.6
Protocol: as §1, §2, §3, §4

[6] = concentrations from 25 to 100 μM
[7] = 5 μM, control without inducer 522.6 ± 15.9

| SMILES | nod gene induction (β-galactosidase activity) ([1]; 5 μM) | nod gene induction (β-galactosidase activity) ([1]; 10 μM) | nod gene induction (β-galactosidase activity) ([1]; 25 μM) | nod gene induction (β-galactosidase activity) ([1]; 50 μM) | nod gene induction (β-galactosidase activity) ([1]; 100 μM) | nod gene induction (β-galactosidase activity) ([2]; 5 μM) | nod gene induction (β-galactosidase activity) ([2]; 10 μM) | nod gene induction (β-galactosidase activity) ([2]; 25 μM) | nod gene induction (β-galactosidase activity) ([2]; 50 μM) | nod gene induction (β-galactosidase activity) ([2]; 100 μM) | nod gene induction (β-galactosidase activity) [3, 7] | nod gene induction (β-galactosidase activity) ([3]; 10 μM, control 522.6 ± 15.9) | nod gene induction (β-galactosidase activity) ([3]; 25 μM, control 522.6 ± 15.9) | nod gene induction (β-galactosidase activity) ([3]; 50 μM, control 522.6 ± 15.9) | nod gene induction (β-galactosidase activity) ([3]; 100 μM, control 522.6 ± 15.9) | nod gene induction (β-galactosidase activity) ([5]; 5 μM) | nod gene induction (β-galactosidase activity) ([5]; 10 μM) | nod gene induction (β-galactosidase activity) ([5]; 25 μM) | nod gene induction (β-galactosidase activity) ([5]; 50 μM) | nod gene induction (β-galactosidase activity) ([5]; 100 μM) | further results |
| --- | --- | --- | --- | --- | --- | --- | --- | --- | --- | --- | --- | --- | --- | --- | --- | --- | --- | --- | --- | --- | --- |
| CC/C=C\CC1C(=O)CCC1CC(=O)OC (stereo not drawn) [MeJA, methyl jasmonate] | 435.4 ± 39 | 418.4 ± 53.1 | 392.7 ± 2.1 | 410.4 ± 24.5 | 386.4 ± 37.3 | 448 ± 30 | 500 ± 61 | 3000 ± 350 | 4700 ± 450 | 4500 ± 400 | 472.2 ± 14.8 | 485.3 ± 42.5 | 403.3 ± 5.6 | 500.1 ± 32 | 392.9 ± 22.7 | 518 ± 42.6 | 487.1 ± 33 | 427 ± 29.4 | 549.2 ± 81.6 | 487.9 ± 89.3 | expression of nod genes (β-galactosidase assay), in words ([2]; concentrations 10 μM or less): showed no activity; expression of nod genes (β-galactosidase assay), in words [2, 6]: strongly induced the expression of nod genes; synergistic effect on β-galactosidase activity [2]: did not result in any synergistic effect; expression of nod genes, in words [4]: induced expression of nod genes |
| CC/C=C\C[C@H]1C(=O)CC[C@@H]1CC(=O)O [JA, [1R-[1α,2β(Z)]]-3-oxo-2-(pentenyl)cyclopentaneacetic acid] | 393.5 ± 30.5 | 447.9 ± 21 | 420.1 ± 4.6 | 375.1 ± 35.3 | 357.7 ± 9.7 | 368 ± 23 | 362 ± 9 | 3200 ± 230 | 3900 ± 150 | 550 ± 210 | 1653.3 ± 105.2 | 2079 ± 254.9 | 1853.3 ± 314.5 | 1884.3 ± 289.3 | 796 ± 67.3 | 540.3 ± 79.3 | 473.7 ± 58.3 | 496 ± 49.2 | 412.7 ± 22.9 | 329.5 ± 19.3 | expression of nod genes (β-galactosidase assay), in words ([2]; concentrations 10 μM or less): showed no activity; expression of nod genes (β-galactosidase assay), in words [2, 6]: strongly induced the expression of nod genes; synergistic effect on β-galactosidase activity [2]: did not result in any synergistic effect; expression of nod genes, in words [4]: induced expression of nod genes |
| O=c1c(-c2ccc(O)cc2)coc2cc(O)cc(O)c12 [GEN, 5,7,4′-trihydroxyisoflavone] | 1421.7 ± 93.4 | 1320.8 ± 75.99 | 1383.8 ± 98.22 | 1160.7 ± 89.7 | 413.7 ± 7.4 | 3304 ± 333 | 2500 ± 94 | 2300 ± 219 | 1930 ± 74 | 406 ± 15 | 2283.8 ± 57.7 | 2007.6 ± 36.7 | 1821 ± 89.2 | 1121.1 ± 156.9 | 491.9 ± 31.6 | 2081.7 ± 148.5 | 1685.1 ± 53.3 | 1286.8 ± 145.5 | 1154.5 ± 121.1 | 430.9 ± 80.6 | optimum concentration for nod gene induction ([2]; USDA3, β-galactosidase assay): 5 µM |
